In brackets after ≈: the same amount, converted by molar mass.
Columns and labels:
[1] = tested on: Mycobacterium tuberculosis; experiment: Antimycobacterial activity against Mycobacterium tuberculosis H37Rv after 10 to 12 days by serial dilution method; format: functional
[2] = tested on: Mycobacterium tuberculosis; experiment: Antimycobacterial activity against Mycobacterium tuberculosis H37Rv after 5 days by microplate alamar blue assay; format: functional; details: 120 h
[3] = tested on: Mycobacterium tuberculosis; experiment: Antimycobacterial activity against Mycobacterium tuberculosis H37Rv ATCC 27294 measured after 5 to 8 days; format: functional
[4] = tested on: Mycobacterium tuberculosis; experiment: Antimycobacterial activity against Mycobacterium tuberculosis H37Rv by NCCLS method; format: functional
[5] = tested on: Mycobacterium tuberculosis; experiment: Growth inhibition of Mycobacterium tuberculosis H37Rv ATCC 27294 measured after 5 to 8 days; format: functional
[6] = tested on: Mycobacterium tuberculosis; experiment: Antitubercular activity against Mycobacterium tuberculosis H37Rv; format: functional
[7] = Inhibition of DNA gyrase (unknown origin)
[8] = tested on: Mycobacterium tuberculosis; experiment: Antimycobacterial activity against Mycobacterium tuberculosis infected in C57BL/6 mouse assessed as colony forming units per lung at 25 mg/kg administered via gavage for 2 days measured last post dose (reference value: 6.53 +/- 0.16 log10CFU); format: functional
[9] = tested on: Mycobacterium tuberculosis; experiment: Antimycobacterial activity against Mycobacterium tuberculosis clinical isolate 303 by broth dilution method; format: functional
[10] = tested on: Mycobacterium tuberculosis; experiment: Antimycobacterial activity against Mycobacterium tuberculosis clinical isolate 1889 by broth dilution method; format: functional
[11] = tested on: Mycobacterium tuberculosis; experiment: Antimycobacterial activity against Mycobacterium tuberculosis clinical isolate 35829 by broth dilution method; format: functional
[12] = tested on: Mycobacterium tuberculosis; experiment: Antimycobacterial activity against Bovin sensitive Mycobacterium tuberculosis measured after six weeks; format: functional
[13] = tested on: Mycobacterium tuberculosis; experiment: Antimycobacterial activity against human sensitive Mycobacterium tuberculosis measured after six weeks; format: functional
[14] = tested on: Mycobacterium tuberculosis; experiment: Antimycobacterial activity against Mycobacterium tuberculosis H37Rv by serial dilution method; format: functional
[15] = tested on: Mycobacterium tuberculosis; experiment: Antimycobacterial activity against Mycobacterium tuberculosis Academia by serial dilution method; format: functional
[16] = tested on: Mycobacterium tuberculosis; experiment: Antimycobacterial activity against Mycobacterium tuberculosis H37Rv ATCC 27294 at < 0.1 ug/mL by microplate alamar blue assay; format: functional
[17] = tested on: Mycobacterium avium; experiment: Antimycobacterial activity against Mycobacterium avium 330/88 measured after 14 to 21 days by micromethod; format: functional
[18] = tested on: Mycobacterium tuberculosis; experiment: Antimycobacterial activity against Mycobacterium tuberculosis 331/88 after 14 to 21 days by micromethod; format: functional

Compound: C[C@]12CC[C@H]3[C@@](CC[C@@H]4[C@]3(C)CCC[C@@]4(C)C(=O)O)(CC1=O)C2
- MIC [1]: 50 µg/mL (≈ 157 µM)

Compound: CO[C@H]1/C=C/O[C@@]2(C)Oc3c(C)c(O)c4c(O)c(c(/C=N/N5CCN(C)CC5)c(O)c4c3C2=O)NC(=O)/C(C)=C\C=C\[C@H](C)[C@H](O)[C@@H](C)[C@@H](O)[C@@H](C)[C@H](OC(C)=O)[C@@H]1C [RIFAMPIN]
- MIC [2]: 1 µg/mL (≈ 1.22 µM)
- MIC [3]: 0.25 µg/mL (≈ 0.304 µM)
- MIC [4]: 0.1 µg/mL (≈ 0.122 µM)
- growth inhibition (GI) [5]: 86%

Compound: COc1nc2ccc(C)cc2cc1C1C(Cl)C(=O)N1NC(=O)c1ccncc1 (stereo not drawn)
- MIC [6]: 3.12 to 6.25 µg/mL

Compound: C=C1C[C@]23CC[C@@H]4[C@](C)(CCC[C@@]4(C)C(=O)NNc4ccncc4)[C@H]2CC[C@]1(O[C@@H]1O[C@H](COC(C)=O)[C@@H](OC(C)=O)[C@H](OC(C)=O)[C@H]1O[C@@H]1O[C@H](COC(C)=O)[C@@H](OC(C)=O)[C@H](OC(C)=O)[C@H]1O)C3
- MIC [1]: 5 µg/mL (≈ 5.07 µM)

Compound: COc1nc2ccccc2cc1C1C(Cl)C(=O)N1NC(=O)c1ccncc1 (stereo not drawn)
- MIC [6]: 3.12 to 6.25 µg/mL

Compound: O=C(NN1C(=O)C(Cl)C1c1ccccc1O)c1ccncc1 (stereo not drawn)
- MIC [2]: 0.62 µg/mL (≈ 1.95 µM)

Compound: O=C(NN1C(=O)C(Cl)C1c1cc2cc(Br)ccc2nc1Cl)c1ccncc1 (stereo not drawn)
- MIC [6]: 12.5 µg/mL

Compound: Cc1ccc2nc(Cl)c(C3C(Cl)C(=O)N3NC(=O)c3ccncc3)cc2c1 (stereo not drawn)
- MIC [6]: 12.5 µg/mL

Compound: CCn1cc(C(=O)O)c(=O)c2cc(F)c(N3CCN(CN4C(=O)/C(=N\NC(=O)c5ccncc5)c5ccccc54)CC3)cc21
- MIC [3]: < 6.25 µg/mL
- growth inhibition (GI) [5]: 100%

Compound: COc1c(N2CCN(CN3C(=O)/C(=N\NC(=O)c4ccncc4)c4ccccc43)C(C)C2)c(F)cc2c(=O)c(C(=O)O)cn(C3CC3)c12 (stereo not drawn)
- MIC [6]: 0.2 µg/mL
- IC50 [7]: 4 µg/mL (≈ 6.12 µM)

Compound: COc1nc2ccc(Cl)cc2cc1C1C(Cl)C(=O)N1NC(=O)c1ccncc1 (stereo not drawn)
- MIC [6]: 3.12 to 6.25 µg/mL

Compound: COc1c(N2CCNC(C)C2)c(F)cc2c(=O)c(C(=O)O)cn(C3CC3)c12 (stereo not drawn) [GATIFLOXACIN]
- MIC [6]: 3.12 µg/mL

Compound: NNC(=O)c1ccncc1 [ISONIAZID]
- Activity [8]: 5.34 log10CFU
- MIC [9]: 4 to 8 µg/mL (≈ 29.2 to 58.3 µM)
- MIC [10]: 4 to 8 µg/mL (≈ 29.2 to 58.3 µM)
- MIC [11]: 4 to 8 µg/mL (≈ 29.2 to 58.3 µM)
- MIC [2]: 0.2 µg/mL (≈ 1.46 µM)
- MIC [12]: 1.4 µg/mL (≈ 10.2 µM)
- MIC [13]: 1.4 µg/mL (≈ 10.2 µM)
- MIC [3]: 0.025 to 0.05 µg/mL (≈ 0.182 to 0.365 µM)
- MIC [14]: 0.015 to 0.06 µg/mL (≈ 0.109 to 0.438 µM)
- MIC [1]: 0.1 µg/mL (≈ 0.729 µM)
- MIC [4]: 0.05 µg/mL (≈ 0.365 µM)
- MIC [6]: 1.45 µM
- growth inhibition (GI) [5]: 95%
- MIC [15]: 0.015 to 0.06 µg/mL (≈ 0.109 to 0.438 µM)

Compound: CCn1cc(C(=O)O)c(=O)c2cc(F)c(N3CCN(CN4C(=O)/C(=N\NC(=O)c5ccncc5)c5cc(Cl)ccc54)CC3)cc21
- MIC [3]: 6.25 to 12.5 µg/mL (≈ 9.89 to 19.8 µM)
- growth inhibition (GI) [5]: 99%

Compound: COc1ccc(C2C(Cl)C(=O)N2NC(=O)c2ccncc2)cc1 (stereo not drawn)
- MIC [2]: 0.31 to 5 µg/mL (≈ 0.934 to 15.1 µM)

Compound: C/C(=N\NC(=O)c1ccncc1)c1ccc(N)cc1
- MIC [6]: 0.23 µM

Compound: C[C@]12CC=CC[C@@H]1CC[C@@H]1[C@@H]2CC[C@]2(C)/C(=N/NC(=O)c3ccncc3)CC[C@@H]12
- inhibition (INH) [16]: >95%

Compound: O=C(N/N=C1\C(=O)N(Cc2ccccc2)c2ccccc21)c1ccncc1
- MIC [12]: 2.7 to 3.5 µg/mL (≈ 7.58 to 9.82 µM)
- MIC [13]: 2.7 to 3.5 µg/mL (≈ 7.58 to 9.82 µM)

Compound: CCCCCCCCc1ccc(NC(=O)NNC(=O)c2ccncc2)cc1
- MIC [17]: 1 to 2 µM (≈ 0.368 to 0.737 µg/mL)
- MIC [18]: 1 to 2 µM (≈ 0.368 to 0.737 µg/mL)

Compound: C[C@]12CC/C(=N\NC(=O)c3ccncc3)C[C@@H]1CC[C@@H]1[C@@H]2CC[C@]2(C)/C(=N/NC(=O)c3ccncc3)CC[C@@H]12
- inhibition (INH) [16]: >95%

Compound: CC[C@@H](CO)NCCN[C@@H](CC)CO [ETHAMBUTOL]
- MIC [4]: 3.25 µg/mL (≈ 15.9 µM)

Compound: O=C(NN1C(=O)C(Cl)C1c1cc2ccccc2nc1Cl)c1ccncc1 (stereo not drawn)
- MIC [6]: 12.5 µg/mL

From ChEMBL document CHEMBL4052616, “Isoniazid derivatives and their anti-tubercular activity” (Eur J Med Chem, 2017)
